We go through 3 compounds from US9296692B2, “Use of indolyl and indolinyl hydroxamates for treating heart failure of neuronal injury” (TAIPEI MEDICAL UNIVERSITY, priority 2011, dated 2016).

The test system of test [1] is heart failure (HF) rats. The test is described as follows: Echocardiography in isoproterenol-induced heart failure (HF) rats. Type of test: in vivo, Wistar rats.
Procedure: Adult male Wistar rats (each weighted about 240-270 g, and were purchased from BioLASCO Taiwan Co., Ltd) were used in this study. […] Heart failure (HF) rats received one subcutaneous injection of isoproterenol at a dosage of 100 mg/Kg. They were housed in an animal room under temperature control (24-25° C.) and 12:12 light-dark cycle. Standard laboratory rat chow and tap water were available ad libitum. […] A midline thoracotomy was then performed, and the heart was removed, weighed, and dissected from each rat for further analysis. Echocardiograms were performed before the animals were euthanized, using HP Sonos 5500 system with a 15-6L probe (6 to 15 MHz, SONOS 5500, Agilent Technologies, Palo Alto, Calif.) or Vivid I ultrasound cardiovascular system (GE Healthcare, Haifa, Israel). LV end-diastolic diameter (LVEDD), LV end-systolic diameter (LVESD), and wall thickness were measured from M-mode tracings. The LV fractional shortening percentage was calculated as ([LVEDD-LVESD]/LVEDD)×100. The LV ejection fraction was calculated by Techholz's formula. All quantitative data are expressed as the mean±S.E.M, and un-paired T test was used to compare the differences between groups.
The test system of test [2] is cAMP response element-binding protein (CREB). The test can be described thus: Western blot analysis of CREB in brain of MCAO rats. The settings on record: 30 mg/Kg intravenous, RA, LA, RP, LP brain areas. Type of test: in vivo. How it is done: (§1) In this example, effects of compounds of this invention were varified using ischematic stroke animal model.
(§2) The bilateral common carotid arteries were isolated through a neck incision and occluded with aneurysm clips. […] After 60 minutes, rats were re-anesthetized, the carotid clips were removed, and the neck incision was closed. The rats were returned to their home cage after fully recovered from anesthesia. The sham surgery is similar to the MCAO surgery, which included the step of opening the dura, yet without the steps of isolating, clipping, or coagulating neither the MCA nor carotid vessel.
Compound 1 was dissolved in 5% ethanol, 35% polyethylene glycol and 60% normal saline at a concentration of 15 mg/ml. All test animals received intravenous injection of either compound 1 (30 mg/Kg), valproic acid (VPA, 30 mg/kg) or vehicle (5% ethanol, 35% polyethylene glycol and 60% normal saline) at 0-7 days after MCAO.
Collected protein samples were mixed with Laemli sample buffer. […] The Immunoblottingquantification was fulfilled via Quantity OneTMsoftware (Bio-Rad).
Level of CREB phosphorylaiton was measured by western blot ananlysis in accordance with steps described in Example 4.3. […]
(A western blot detects proteins with antibodies after separation by electrophoresis.)

Test [3] deals with MCAO rats. The test is described as follows: Infarction volume (TTC staining) in middle cerebral artery occlusion (MCAO) rats. The conditions noted are these: 30 mg/Kg intravenous, N=5 per group, 3 days. Type of test: in vivo. How it is done:
as §1, §2
Compound 1 was dissolved in 5% ethanol, 35% polyethylene glycol and 60% normal saline at a concentration of 15 mg/ml. […]
Medicaments prepared in accordance with steps described in Example 4.2 were given to the 3 groups of MCAO rats of Example 4.1 (N=5, for each group), and the infraction area of these animals were then stained and estimated by similar steps described in Examples 3.4 and 3.5, and results are illustrated in FIGS. 7A and 7B. […] In another example, after induction of MACO, rats were infused with compound 1 at 30 min, 2 hrs, 4 hrs, and 24 hrs, respectively; and the infarction volume was calculated 3 days after MCAO.

Test [4] concerns TBI rats. The test is described as follows: Skilled forelimb reaching task in TBI rats. Type of test: in vivo, Sprague-Dawley rats. The settings on record: 30 mg/Kg intravenous at 0-7 days after TBI. The text has this: Adult male Sprague-Dawley rats (each weighted about 250-300 g, and were purchased from BioLASCO Taiwan Co., Ltd) were used in this study. The rats were randomly allocated into three groups: (i) TBI+test Compound (e.g., Compound 1 or valproic acid (VPA)), (ii) TBI+VEH (i.e., vehicle-treated TBI rats), and (iii) Sham (sham-operated control). They were housed in an animal room under temperature control (24-25) and 12:12 light-dark cycle. Standard laboratory rat chow and tap water were available ad libitum. All animal experiments were carried out in accordance with the guidelines established by the Institutional Animal Care and Utilization Committee of the Taipei Medical University (Taipei, Taiwan, R.O.C.).
Surgical anesthesia was induced by ketamine (90 mg/kg body weight) and xylazine (10 mg/kg body weight), which were administered intraperitoneally (ip). Following anesthesia, the animals were secured in a stereotaxic frame and ventilated mechanically. A cortical contusion was produced on the exposed cortex using a controlled impactor device TBI-0200 TBI Model system (Precision Systems and Instrumentation). […]
All test animals were trained to criterion on the skilled forelimb reaching task. […] During the initial days of training, limb preference was determined and placement of pellets was adjusted to favor the use of the preferred forelimb. […]

Where [5] appears, read: HF rats, after treatment, 100 mg/kg oral gavage once daily for 7 days, mean±S.E.M.
Where [6] appears, read: HF rats, before treatment (baseline of the group), n = 7, mean±S.E.M.

Molecules are shown by their SMILES. “And” between values parts separate entries of the source, which are not always exact repeats. Equal values may be shown once.

Take `NNc1nncc2ccccc12` [hydralazine, reference compound]: the Ejection fraction is 76±10% in test [1] (HF rats (isoproterenol 150 mg/kg s.c.), after 10 mg/kg i.p. once daily for 7 days, data not shown) and 59±4% in test [1] (HF rats (isoproterenol 150 mg/kg s.c.), starting value that the ejection fraction increased from, data not shown).

On to `CCCC(CCC)C(=O)O` [VPA, valproic acid], for which the “Up-regulation of CREB (p-CREB and t-CREB), FIG. 8” value in test [2] is reported as “up-regulation of cAMP response element-binding protein (CREB)”. Moreover, the “Infarction volume, FIG. 7A” value in test [3] is given as “significant reduction of infarction volume”. Also, the “Behaviour function deficits (skilled forelimb reaching task), FIG. 6” value in test [4] is “significantly improve the behaviour function deficits caused by TBI”.

Turning to `O=C(/C=C/c1ccc2c(ccn2S(=O)(=O)c2ccccc2)c1)NO` [compound 1, 3-(1-benzensulfonyl-1H-indol-5-yl)-N-hydroxy-acrylamide], in test [1] (setting [5]), the Fraction shortening turned out to be 47 ± 3 %, the IVSd is 1.3 ± 0.1 mm, the LVEDd turned out to be 4.6 ± 0.2 mm and the LVESd is 2.4 ± 0.2 mm. For the same compound, the Ejection fraction in test [1] (HF rats, after treatment, 100 mg/kg oral gavage once daily for 7 days, mean±S.E.M, 100 mg/kg) is 81% and 81 ± 3 %. In addition, in test [1] (setting [6]), the Ejection fraction came out at 68 ± 2%, the Fraction shortening was found to be 38 ± 3%, the IVSd was 1.4 ± 0.1 mm and the LVEDd is 5.4 ± 0.4 mm. The same compound gave an LVESd in test [1] (setting [6]) of 3.4 ± 0.3 mm.
